Results: patent publication US20250276031A1, “PRODRUGS AS SELECTIVE ANTIBIOTICS AGAINST COLIBACTIN-PRODUCING E. COLI” (New York University in Abu Dhabi Corporation, priority 2024, published 2025)
pIC50: −log10 of the molar value.

How the values were obtained:
[1] = system: E. coli C41 DE3 pet29b_clbP pSEVA631_mGFP and E. coli C41 DE3 pet29b pSEVA_mScarlet-i; experiment: Co-culture competition assay with PXCNA (mGFP / mScarlet-i fluorescence, OD600); type: cell-based
Experimental: PXCNA activity was measured via fluorescence (see FIGS. 18 and 19).
A co-culture assay was performed. Overnight cultures of E. coli C41 DE3 pet29b_cIbP pSEVA631_mGFP and E. coli C41 DE3 pet29b pSEVA_mScarlet-i were prepared separately each from a single colony. Then 1:100 dilution of each culture into the same LB media well supplemented with kanamycin (50 μg/ml) and gentamycin (15 μg/ml) was performed. […] Samples were fed with PXCNA with a final concentration of 25 mg/L.

[2] = system: E. coli expressing the ClbP protease; experiment: Growth curves with PXCNA; type: cell-based; conditions: crude extract, 10, 25, 50 mg/L; IPTG induced; 22° C., 24 hrs, OD600
Experimental: Growth curves made using PXCNA. Briefly, a single colony from E. coli strain C41(DE3)_ΔacrABpET-29b clbP strain was inoculated into LB medium supplemented with kanamycin (50 μg/ml). This culture was grown overnight at 37° C. while shaking at 200 RPM. 1:100 dilution of overnight culture into fresh LB medium supplemented with kanamycin (50 μg/ml) was performed. Samples were induced with IPTG (0.5 mM). A crude extract of PXCNA prepared in methanol (1 mg/ml). The final concentration in samples was 50 mg/L, 25 mg/L and 10 mg/L. Samples were incubated at 22° C. for 24 hrs and OD600 was measured using TecanSpark.

[3] = system: Escherichia coli ribosome; conditions: comparison value, no own experiment described; read-out: IC50 of chloramphenicol given for comparison; cited from earlier work

## CC(C)CCCC(=O)N[C@H](CC(N)=O)C(=O)N[C@@H](CCCN=C(N)N)[C@H](O)[C@H](O)C(=O)N[C@@H](CC(C)C)[C@@H]1Cc2cccc(O)c2C(=O)O1 [PXCNA, prexenocoumacin]
[1]; PXCNA 25 mg/L, vanillic acid, with or without IPTG
  mGFP and mScarlet-i fluorescence in co-culture: low level of fluorescence observed for both
[1]; only vanillic acid and PXCNA added, no IPTG
  OD600 growth of E. coli C41 DE3 pet29b_clbP pSEVA631_mGFP: growth did not appear inhibited
[2]
  selective killing of ClbP expressing E. coli: kills selectively E. coli expressing the ClbP protease

## O=C(N[C@H](CO)[C@H](O)c1ccc([N+](=O)[O-])cc1)C(Cl)Cl [chloramphenicol]
[3]
  pIC50: 5.55
